Like-named read-outs stand apart in the source and are kept apart here.
What was measured:
[1] = Metabolic stability, incubation with human liver cytosol; assay type: in vitro ADME; conditions: 1 µM test compound, 1 mg/mL protein
CYP3A4 [2] = target: T1, CYP3A4 (Homo sapiens, UniProt P08684); conditions: microsomes
rCYP3A4 = rCYP3A4 (Homo sapiens, UniProt P08684)
CYP3A4 [3] = target: T1, CYP3A4; assay: in vitro; conditions: microsomes, pH 7.4, % Inhibition of Control Activity CYP3A4 (substrate, testosterone)
CYP3A4 [4] = target: T1, CYP3A4; assay: in vitro; conditions: microsomes, pH 7.4
[5] = Metabolic stability, incubation with human liver microsomes; conditions: 1 µM test compound, 0.5 mg/mL protein
CYP2C8 = target: T2, CYP2C8 (Homo sapiens, UniProt P10632); assay: CYP inhibition in human liver microsomes, CYP2C8; conditions: for % Inhibition of Control Activity CYP2C8: NI: No Inhibitin
T2 sequence (P10632 1-490): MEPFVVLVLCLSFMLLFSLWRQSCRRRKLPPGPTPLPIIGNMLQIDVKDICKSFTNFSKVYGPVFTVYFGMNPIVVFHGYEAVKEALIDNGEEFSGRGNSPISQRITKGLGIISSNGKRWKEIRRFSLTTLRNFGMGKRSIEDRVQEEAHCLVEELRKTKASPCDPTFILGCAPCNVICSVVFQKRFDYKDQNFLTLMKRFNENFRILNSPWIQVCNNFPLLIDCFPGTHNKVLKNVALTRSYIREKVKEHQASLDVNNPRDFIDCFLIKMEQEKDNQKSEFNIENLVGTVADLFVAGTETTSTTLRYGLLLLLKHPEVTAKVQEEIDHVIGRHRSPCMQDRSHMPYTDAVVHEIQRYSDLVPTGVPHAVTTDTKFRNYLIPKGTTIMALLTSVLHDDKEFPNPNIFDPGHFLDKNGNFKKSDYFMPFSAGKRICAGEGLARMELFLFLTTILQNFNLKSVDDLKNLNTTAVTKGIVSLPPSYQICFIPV

CYP2C9 = CYP2C9 (Homo sapiens, UniProt P11712); assay: CYP inhibition in human liver microsomes, CYP2C9; conditions: HLM; for % Inhibition of Control Activity CYP2C9: NI: No Inhibitin
CYP2D6 = CYP2D6 (Homo sapiens, UniProt P10635); assay: CYP inhibition in human liver microsomes, CYP2D6; conditions: inhibitor 10 µM; HLM; NI: No Inhibitin; 10 µM
rCYP1A2 = target: T3, rCYP1A2 (Homo sapiens, UniProt P05177); assay: Metabolic stability / reaction phenotyping with recombinant human CYP1A2; conditions: for % Metabolized at 30 min Incubation with Human Liver Fractions/Enzymes rCYP1A2: 1 µM test compound, 100 pmol/mL
T3 sequence (P05177 1-516): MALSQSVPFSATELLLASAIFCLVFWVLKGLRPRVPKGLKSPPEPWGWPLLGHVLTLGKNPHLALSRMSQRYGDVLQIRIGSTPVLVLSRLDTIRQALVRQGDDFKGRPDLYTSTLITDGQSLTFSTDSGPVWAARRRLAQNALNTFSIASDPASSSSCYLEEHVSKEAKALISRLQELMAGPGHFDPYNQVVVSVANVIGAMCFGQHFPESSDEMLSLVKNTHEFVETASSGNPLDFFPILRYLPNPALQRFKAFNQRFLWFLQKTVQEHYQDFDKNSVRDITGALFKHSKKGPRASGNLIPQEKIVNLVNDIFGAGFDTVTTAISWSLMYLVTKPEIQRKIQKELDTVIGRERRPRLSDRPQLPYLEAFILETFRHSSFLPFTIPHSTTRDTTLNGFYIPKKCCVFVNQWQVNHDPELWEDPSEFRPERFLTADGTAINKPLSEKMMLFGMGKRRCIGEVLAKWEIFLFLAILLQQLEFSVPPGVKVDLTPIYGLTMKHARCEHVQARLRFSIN

rCYP2C8 = target: T4, rCYP2C8 (Homo sapiens, UniProt P10632); assay: Metabolic stability / reaction phenotyping with recombinant human CYP2C8; conditions: for % Metabolized at 30 min Incubation with Human Liver Fractions/Enzymes rCYP2C8: 1 µM test compound, 100 pmol/mL
T4 sequence (P10632 1-490): T2 sequence (P10632 1-490)

rCYP2C9 = rCYP2C9 (Homo sapiens, UniProt P11712); assay: Metabolic stability / reaction phenotyping with recombinant human CYP2C9; conditions: for % Metabolized at 30 min Incubation with Human Liver Fractions/Enzymes rCYP2C9: 1 µM test compound, 100 pmol/mL
rCYP2D6 = rCYP2D6 (Homo sapiens, UniProt P10635); assay: Metabolic stability / reaction phenotyping with recombinant human CYP2D6; conditions: for % Metabolized at 30 min Incubation with Human Liver Fractions/Enzymes rCYP2D6: 1 µM test compound, 100 pmol/mL
rCYP2C19 = rCYP2C19 (Homo sapiens, UniProt P33261); assay: Metabolic stability / reaction phenotyping with recombinant human CYP2C19; conditions: for % Metabolized at 30 min Incubation with Human Liver Fractions/Enzymes rCYP2C19: 1 µM test compound, 100 pmol/mL
[6] = cited from earlier work
CYP1A2 = target: T5, CYP1A2 (Homo sapiens, UniProt P05177); assay: CYP inhibition in human liver microsomes, CYP1A2; conditions: inhibitor 10 µM; HLM; NI: No Inhibitin
T5 sequence (P05177 1-516): T3 sequence (P05177 1-516)

CYP2C19 = CYP2C19 (Homo sapiens, UniProt P33261); assay: CYP inhibition in human liver microsomes, CYP2C19; conditions: inhibitor 10 µM; HLM; NI: No Inhibitin
[7] = human, recombinant enzyme, pH 7.4
[8] = human, human liver microsomes, pH 7.4, probe paclitaxel
[9] = human, recombinant human CYP1A2, 1 µM, pH 7.4
[10] = human, recombinant human CYP2C8, 1 µM, pH 7.4
[11] = human, recombinant human CYP2D6, 1 µM, pH 7.4
[12] = human, recombinant human CYP2C19, 1 µM, pH 7.4

Sequence of rCYP2C19 (P33261 whole entry): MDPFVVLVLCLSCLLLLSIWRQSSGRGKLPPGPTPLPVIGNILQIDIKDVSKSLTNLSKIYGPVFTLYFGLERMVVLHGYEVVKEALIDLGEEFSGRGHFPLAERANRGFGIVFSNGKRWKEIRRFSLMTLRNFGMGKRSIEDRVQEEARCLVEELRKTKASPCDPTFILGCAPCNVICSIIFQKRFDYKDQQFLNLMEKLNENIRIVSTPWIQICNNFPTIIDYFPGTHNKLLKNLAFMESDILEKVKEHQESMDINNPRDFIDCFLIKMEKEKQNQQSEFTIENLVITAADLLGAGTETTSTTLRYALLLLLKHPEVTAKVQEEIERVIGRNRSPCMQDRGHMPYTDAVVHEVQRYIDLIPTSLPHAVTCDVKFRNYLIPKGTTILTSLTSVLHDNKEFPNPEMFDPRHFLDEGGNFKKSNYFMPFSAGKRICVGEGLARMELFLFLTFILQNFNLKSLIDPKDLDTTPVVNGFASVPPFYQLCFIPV
Sequence of rCYP3A4 (P08684 whole entry): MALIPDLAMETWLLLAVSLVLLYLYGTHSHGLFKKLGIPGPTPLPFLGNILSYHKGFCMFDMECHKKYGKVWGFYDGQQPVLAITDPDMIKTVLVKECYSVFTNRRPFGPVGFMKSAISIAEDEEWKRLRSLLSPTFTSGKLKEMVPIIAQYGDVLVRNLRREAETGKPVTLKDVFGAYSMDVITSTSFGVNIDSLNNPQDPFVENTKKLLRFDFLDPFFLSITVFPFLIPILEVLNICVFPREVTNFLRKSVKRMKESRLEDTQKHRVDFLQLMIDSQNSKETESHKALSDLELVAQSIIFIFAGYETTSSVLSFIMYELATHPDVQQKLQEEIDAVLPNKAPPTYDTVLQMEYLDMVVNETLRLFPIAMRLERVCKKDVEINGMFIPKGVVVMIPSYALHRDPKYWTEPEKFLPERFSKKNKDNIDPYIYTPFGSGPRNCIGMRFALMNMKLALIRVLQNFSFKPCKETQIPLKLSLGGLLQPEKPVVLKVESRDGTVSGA
Sequence of rCYP2D6 (P10635 whole entry): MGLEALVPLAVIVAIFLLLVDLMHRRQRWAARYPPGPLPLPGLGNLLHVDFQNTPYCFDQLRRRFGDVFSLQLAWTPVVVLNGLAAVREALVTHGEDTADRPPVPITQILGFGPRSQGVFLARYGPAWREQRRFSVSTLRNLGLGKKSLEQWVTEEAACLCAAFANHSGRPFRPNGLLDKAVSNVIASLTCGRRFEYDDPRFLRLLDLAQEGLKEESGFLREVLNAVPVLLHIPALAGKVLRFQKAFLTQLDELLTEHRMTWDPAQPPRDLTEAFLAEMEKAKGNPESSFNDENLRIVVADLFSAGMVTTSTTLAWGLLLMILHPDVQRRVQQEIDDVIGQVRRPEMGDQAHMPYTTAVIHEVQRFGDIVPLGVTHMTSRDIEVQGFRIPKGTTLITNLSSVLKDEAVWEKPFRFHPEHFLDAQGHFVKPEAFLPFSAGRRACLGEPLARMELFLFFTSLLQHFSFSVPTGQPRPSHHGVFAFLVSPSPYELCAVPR
Sequence of CYP2C9 (P11712 whole entry): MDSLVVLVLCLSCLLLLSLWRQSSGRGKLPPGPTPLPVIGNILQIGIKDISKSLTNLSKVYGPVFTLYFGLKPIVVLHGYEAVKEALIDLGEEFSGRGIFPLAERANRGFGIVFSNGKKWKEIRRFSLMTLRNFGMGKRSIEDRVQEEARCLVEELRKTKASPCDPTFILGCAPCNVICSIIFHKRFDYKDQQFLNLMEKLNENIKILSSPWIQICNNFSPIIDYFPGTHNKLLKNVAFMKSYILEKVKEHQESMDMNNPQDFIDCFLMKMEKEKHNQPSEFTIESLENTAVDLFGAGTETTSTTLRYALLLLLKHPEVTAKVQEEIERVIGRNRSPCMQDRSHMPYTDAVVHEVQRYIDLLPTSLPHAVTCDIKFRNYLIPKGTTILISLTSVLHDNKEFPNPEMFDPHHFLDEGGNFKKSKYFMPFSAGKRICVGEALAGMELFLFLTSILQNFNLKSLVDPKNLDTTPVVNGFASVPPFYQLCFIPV
Sequence of rCYP2C9 (P11712 whole entry): as above
T1 sequence (P08684 2-503): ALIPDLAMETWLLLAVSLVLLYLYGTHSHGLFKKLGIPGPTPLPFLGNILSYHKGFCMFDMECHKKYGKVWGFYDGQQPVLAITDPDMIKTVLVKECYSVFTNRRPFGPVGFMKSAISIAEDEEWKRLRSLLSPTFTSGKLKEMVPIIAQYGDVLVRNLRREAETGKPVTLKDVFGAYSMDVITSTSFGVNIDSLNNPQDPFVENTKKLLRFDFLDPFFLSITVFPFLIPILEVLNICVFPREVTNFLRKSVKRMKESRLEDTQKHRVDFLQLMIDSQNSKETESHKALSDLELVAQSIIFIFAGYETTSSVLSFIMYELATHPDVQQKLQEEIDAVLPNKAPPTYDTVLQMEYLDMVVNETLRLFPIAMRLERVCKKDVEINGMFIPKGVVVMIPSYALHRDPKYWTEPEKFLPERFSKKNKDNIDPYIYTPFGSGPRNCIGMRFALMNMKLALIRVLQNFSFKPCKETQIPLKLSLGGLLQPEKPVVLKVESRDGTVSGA
Sequence of CYP2C19 (P33261 whole entry): as the sequence (P33261 whole entry) above
Sequence of CYP2D6 (P10635 whole entry): as the sequence (P10635 whole entry) above

For `O=C1Cc2cc(CCN3CCN(c4nsc5ccccc45)CC3)c(Cl)cc2N1` [Ziprasidone, ziprasidone, reference compound], the “% Metabolized at 30 min Incubation with Human Liver Fractions/Enzymes Cytosol” value [1] was 10.86%, the “% Inhibition of Control Activity CYP3A4 (substrate, testosterone)” value (“% Inhibition of Control Activity CYP3A4” below) (CYP3A4 [2]; human, 10 µM, pH 7.4) was 33.06% and the “Predicted Microsomal Clint, CYP3A4” value (rCYP3A4; human, pH 7.4) was 53.530 µL/min/mg Protein. The “% Metabolized at 30 min Incubation with Human Liver Fractions/Enzymes rCYP3A4” value (rCYP3A4; human, recombinant enzyme, 0.5 h, pH 7.4) was 76.47%, the “% Contribution of CYP Enzymes (fmCYP) in Metabolism, CYP3A4” value (rCYP3A4; [7]) was 86.67% and the “rCYP Clint, CYP3A4” value (rCYP3A4; [7]) was 0.482 µL/min/pmol. For the same compound, the inhibition at 2 µM (CYP3A4 [3]) was 8.3%, the inhibition at 2 µM (CYP3A4 [4]) was 22% and the inhibition at 10 µM (CYP3A4 [4]) was 31.1%. For the same compound, the “% Metabolized at 30 min Incubation with Human Liver Fractions/Enzymes HLM” value [5] was 83.11%, the inhibition at 2 µM (CYP2C8; [8]) was under 0% and the inhibition at 10 µM (CYP2C8; [8]) was 12%. The “% Inhibition of Control Activity CYP2C9” value (CYP2C9; inhibitor 10 µM, 10 µM) was 1.44%, the “% Inhibition of Control Activity CYP2D6” value (CYP2D6) was 11.70% and the “% Metabolized at 30 min Incubation with Human Liver Fractions/Enzymes rCYP1A2” value (rCYP1A2) was 5.98%. For the same compound, the “% Contribution of CYP Enzymes (fmCYP) in Metabolism, CYP1A2” value (rCYP1A2; [9]) was 1.73%, the “Predicted Microsomal Clint, CYP1A2” value (rCYP1A2; [9]) was 1.069 µL/min/mg Protein and the “rCYP Clint, CYP1A2” value (rCYP1A2; [9]) was 0.021 µL/min/pmol. The “% Metabolized at 30 min Incubation with Human Liver Fractions/Enzymes rCYP2C8” value (rCYP2C8) was 22.84%, the “% Contribution of CYP Enzymes (fmCYP) in Metabolism, CYP2C8” value (rCYP2C8; [10]) was 8.96% and the “Predicted Microsomal Clint, CYP2C8” value (rCYP2C8; [10]) was 5.532 µL/min/mg Protein. The “rCYP Clint, CYP2C8” value (rCYP2C8; [10]) was 0.086 µL/min/pmol, the “% Metabolized at 30 min Incubation with Human Liver Fractions/Enzymes rCYP2C9” value (rCYP2C9) was 0.00% and the “% Metabolized at 30 min Incubation with Human Liver Fractions/Enzymes rCYP2D6” value (rCYP2D6) was 3.73%. The “% Contribution of CYP Enzymes (fmCYP) in Metabolism, CYP2D6” value (rCYP2D6; [11]) was 0.21%, the “Predicted Microsomal Clint, CYP2D6” value (rCYP2D6; [11]) was 0.127 µL/min/mg Protein and the “rCYP Clint, CYP2D6” value (rCYP2D6; [11]) was 0.013 µL/min/pmol. The “% Metabolized at 30 min Incubation with Human Liver Fractions/Enzymes rCYP2C19” value (rCYP2C19) was 21.17%, the “% Contribution of CYP Enzymes (fmCYP) in Metabolism, CYP2C19” value (rCYP2C19; [12]) was 2.44% and the “Predicted Microsomal Clint, CYP2C19” value (rCYP2C19; [12]) was 1.507 µL/min/mg Protein. The “rCYP Clint, CYP2C19” value (rCYP2C19; [12]) was 0.079 µL/min/pmol.
For triclabendazole sulfone, the “% Metabolized at 30 min Incubation with Human Liver Fractions/Enzymes Cytosol” value [1] was 0.00%, the “% Inhibition of Control Activity CYP3A4” value (CYP3A4 [2]; 2 µM) was 4.09% and the “% Inhibition of Control Activity CYP3A4” value (CYP3A4 [2]; 10 µM) was 8.63%. The “Predicted Microsomal Clint, CYP3A4” value (rCYP3A4) was 3.591 µL/min/mg Protein, the “% Metabolized at 30 min Incubation with Human Liver Fractions/Enzymes rCYP3A4” value (rCYP3A4; 1 µM test compound, 100 pmol/mL, 30 min) was 9.25% and the “rCYP Clint, CYP3A4” value (rCYP3A4; human, recombinant enzyme) was 0.032 µL/min/pmol. The “% Contribution of CYP Enzymes (fmCYP) in Metabolism, CYP3A4” value (rCYP3A4; recombinant enzyme) was 2.67%, the Cmax ([6]; human patients at therapeutic doses of triclabendazole) was 2290 nM and the half-life ([6]; humans) was 11 to 12 h. For the same compound, the “% Metabolized at 30 min Incubation with Human Liver Fractions/Enzymes HLM” value [5] was 52.20%, the “% Inhibition of Control Activity CYP1A2” value (CYP1A2) was 8.60% and the “% Inhibition of Control Activity CYP2C8” value (CYP2C8; inhibitor 2 µM, HLM) was 65.36%. The “% Inhibition of Control Activity CYP2C8” value (CYP2C8; inhibitor 10 µM, HLM) was 92.88%, the IC50 (CYP2C8; read-out: IC50 CYP 2C8, HLM) was 1050 nM and the “% Inhibition of Control Activity CYP2C9” value (CYP2C9; inhibitor 2 µM) was 78.78%. The “% Inhibition of Control Activity CYP2C9” value (CYP2C9; inhibitor 10 µM) was 96.15%, the IC50 (CYP2C9; read-out: IC50 CYP 2C9) was 690 nM and the “% Inhibition of Control Activity CYP2C19” value (CYP2C19) was 5.05%. For the same compound, the “Predicted Microsomal Clint, CYP1A2” value (rCYP1A2) was 0.069 µL/min/mg Protein, the “% Metabolized at 30 min Incubation with Human Liver Fractions/Enzymes rCYP1A2” value (rCYP1A2) was 0.40% and the “rCYP Clint, CYP1A2” value (rCYP1A2; human, recombinant enzyme) was 0.001 µL/min/pmol. The “% Contribution of CYP Enzymes (fmCYP) in Metabolism, CYP1A2” value (rCYP1A2; recombinant enzyme) was 0.05%, the “% Metabolized at 30 min Incubation with Human Liver Fractions/Enzymes rCYP2C8” value (rCYP2C8) was 0.00% and the “Predicted Microsomal Clint, CYP2C9” value (rCYP2C9) was 130.447 µL/min/mg Protein. The “% Metabolized at 30 min Incubation with Human Liver Fractions/Enzymes rCYP2C9” value (rCYP2C9) was 98.31%, the “rCYP Clint, CYP2C9” value (rCYP2C9; human, recombinant enzyme) was 1.359 µL/min/pmol and the “% Contribution of CYP Enzymes (fmCYP) in Metabolism, CYP2C9” value (rCYP2C9; recombinant enzyme) was 97.11%. The “% Metabolized at 30 min Incubation with Human Liver Fractions/Enzymes rCYP2D6” value (rCYP2D6) was 0.00%, the “Predicted Microsomal Clint, CYP2C19” value (rCYP2C19) was 0.228 µL/min/mg Protein and the “% Metabolized at 30 min Incubation with Human Liver Fractions/Enzymes rCYP2C19” value (rCYP2C19) was 3.53%. The “rCYP Clint, CYP2C19” value (rCYP2C19; human, recombinant enzyme) was 0.012 µL/min/pmol and the “% Contribution of CYP Enzymes (fmCYP) in Metabolism, CYP2C19” value (rCYP2C19; recombinant enzyme) was 0.17%.
